Experimental data taken from patent US20260022142A1, “MACROCYCLIC IMMUNOMODULATORS” (Bristol-Myers Squibb Company, priority 2022, published 2026).
pIC50: −log10 of the molar value. Bridge positions count the residues as written; N and C are the ends. Square brackets hold non-standard residues; d marks the D form. Peptide text beside a SMILES is read from it. * marks the point of attachment. Bip = N[C@@H](Cc1ccc(-c2ccccc2)cc1)C(=O)O; Phe(3-Me) = Cc1cccc(C[C@H](N)C(=O)O)c1; hhGln = NC(=O)CCCC[C@H](N)C(=O)O; Cha = N[C@@H](CC1CCCCC1)C(=O)O; Cit = NC(=O)NCCC[C@H](N)C(=O)O; Carboxymethyl = O=C(O)C*; Orn = NCCC[C@H](N)C(=O)O; Aun = NCCCCCCCCCCC(=O)O; Dab = NCC[C@H](N)C(=O)O; Dap = NC[C@H](N)C(=O)O; AEEA = NCCOCCOCC(=O)O

Biological target: T1, PD-1/PD-L1 interaction (PE-labeled human PD-L1-Ig binding to Jurkat cell line over-expressing human PD-1) (Homo sapiens, UniProt Q15116)
T1 construct: expressed in transfected cells; host or cells: Jurkat
T1 sequence (Q15116 25-288): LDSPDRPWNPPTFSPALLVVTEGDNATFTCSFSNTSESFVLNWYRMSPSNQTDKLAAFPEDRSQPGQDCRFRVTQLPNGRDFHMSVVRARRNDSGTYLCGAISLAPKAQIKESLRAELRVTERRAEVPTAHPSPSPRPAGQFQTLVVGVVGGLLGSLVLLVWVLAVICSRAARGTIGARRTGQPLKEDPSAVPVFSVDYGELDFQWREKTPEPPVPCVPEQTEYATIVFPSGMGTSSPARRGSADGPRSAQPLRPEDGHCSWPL
Assay: Jurkat-PD-1 Cell Binding High-Content Screening Assay (CBA)
Type: cell-based
Settings: Jurkat cell line over-expressing human PD-1; PE-labeled PD-L1-Ig 20 nM final; read-out: Jurkat hPD1-PDL1 IC50
How it was run: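 Jurkat cells stably over-expressing human PD-1 were seeded in DMEM with 10% fetal calf serum and pre-incubated with compound for 2 h at 37° C. PE-labeled human PD-L1-Ig was then added at 20 nM final for 1 hour, after which cells were fixed with paraformaldehyde, Hoechst-stained and imaged by high-content microscopy.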

Compound	pIC50
CC[C@H](C)[C@@H]1NC(=O)[C@H](Cc2ccc(-c3ccccc3)cc2)NC(=O)[C@H](C(C)C)NC(=O)[C@H](Cc2cccc(C)c2)NC(=O)[C@H](CC(=O)O)NC(=O)[C@H](Cc2ccc(OCC(=O)O)cc2)NC(=O)[C@H](CN)NC(=O)CSC[C@@H](C(=O)NCCOCCOCC(=O)N[C@@H](CCN)C(=O)NCCCCCCCCCCC(=O)O)NC(=O)[C@H](CN)NC(=O)[C@H](C(C)C)NC(=O)[C@H](CC2CCCCC2)NC(=O)[C@H](CCN)NC(=O)[C@@H](CC(C)C)NC(=O)[C@H](CCCN)NC1=O [Compound 2628] ({CH2CO}-[Dap]Y(Carboxymethyl)D[Phe(3-Me)]V[Bip]I[Orn][dL][Dab][Cha]V[Dap]C[AEEA][Dab][Aun]-OH; thioether N-14)	7.82
Cc1cccc(C[C@@H]2NC(=O)[C@H](CC(=O)O)NC(=O)[C@H](Cc3ccc(OCC(=O)O)cc3)NC(=O)[C@H](CN)NC(=O)CSC[C@@H](C(=O)NCCOCCOCC(=O)N[C@@H](CCN)C(=O)NCCCCCCCCCCC(=O)O)NC(=O)[C@H](CCCN)NC(=O)[C@H](C(C)C)NC(=O)[C@H](CC3CCCCC3)NC(=O)[C@H](CCN)NC(=O)[C@@H](CC(C)C)NC(=O)[C@H](CCCN)NC(=O)[C@H](CCCNC(N)=O)NC(=O)[C@H](Cc3ccc(-c4ccccc4)cc3)NC(=O)[C@H](C(C)C)NC2=O)c1 [Compound 2629] ({CH2CO}-[Dap]Y(Carboxymethyl)D[Phe(3-Me)]V[Bip][Cit][Orn][dL][Dab][Cha]V[Orn]C[AEEA][Dab][Aun]-OH; thioether N-14)	8.07
CC[C@H](C)[C@@H]1NC(=O)[C@H](Cc2ccc(-c3ccccc3)cc2)NC(=O)[C@H](C(C)C)NC(=O)[C@H](Cc2cccc(C)c2)NC(=O)[C@H](CC(=O)O)NC(=O)[C@H](Cc2ccc(OCC(=O)O)cc2)NC(=O)[C@H](CN)NC(=O)CSC[C@@H](C(=O)NCCOCCOCC(=O)N[C@@H](CCN)C(=O)NCCCCCCCCCCC(=O)O)NC(=O)[C@H](CCCN)NC(=O)[C@H](C(C)C)NC(=O)[C@H](CC2CCCCC2)NC(=O)[C@H](CCN)NC(=O)[C@@H](CC(C)C)NC(=O)[C@H](CCCN)NC1=O [Compound 2630] ({CH2CO}-[Dap]Y(Carboxymethyl)D[Phe(3-Me)]V[Bip]I[Orn][dL][Dab][Cha]V[Orn]C[AEEA][Dab][Aun]-OH; thioether N-14)	8.00
CC(C)C[C@H]1NC(=O)[C@H](CCCN)NC(=O)[C@H](CCCCC(N)=O)NC(=O)[C@H](Cc2ccc(-c3ccccc3)cc2)NC(=O)[C@H](C(C)C)NC(=O)[C@H](Cc2c[nH]c3ccccc23)NC(=O)[C@H](CC(=O)O)NC(=O)[C@H](Cc2ccc(OCC(=O)O)cc2)NC(=O)[C@H](CN)NC(=O)CSC[C@@H](C(=O)N[C@@H](CCN)C(=O)NCCOCCOCC(=O)NCCCCCCCCCCC(=O)O)NC(=O)[C@H](CCCCN)NC(=O)[C@H](C(C)C)NC(=O)[C@H](CC2CCCCC2)NC(=O)[C@H](CCN)NC1=O [Compound 2631] ({CH2CO}-[Dap]Y(Carboxymethyl)DWV[Bip][hhGln][Orn][dL][Dab][Cha]VKC[Dab][AEEA][Aun]-OH; thioether N-14)	7.85
CC[C@H](C)[C@@H]1NC(=O)[C@H](Cc2ccc(-c3ccccc3)cc2)NC(=O)[C@H](C(C)C)NC(=O)[C@H](Cc2c[nH]c3ccccc23)NC(=O)[C@H](CC(=O)O)NC(=O)[C@H](Cc2ccc(OCC(=O)O)cc2)NC(=O)[C@H](CN)NC(=O)CSC[C@@H](C(=O)N[C@@H](CCN)C(=O)NCCOCCOCC(=O)NCCCCCCCCCCC(=O)O)NC(=O)[C@H](CCCCN)NC(=O)[C@H](C(C)C)NC(=O)[C@H](CC2CCCCC2)NC(=O)[C@H](CCN)NC(=O)[C@@H](CC(C)C)NC(=O)[C@H](CCCN)NC1=O [Compound 2632] ({CH2CO}-[Dap]Y(Carboxymethyl)DWV[Bip]I[Orn][dL][Dab][Cha]VKC[Dab][AEEA][Aun]-OH; thioether N-14)	7.91
Cc1cccc(C[C@@H]2NC(=O)[C@H](CC(=O)O)NC(=O)[C@H](Cc3ccc(OCC(=O)O)cc3)NC(=O)[C@H](CN)NC(=O)CSC[C@@H](C(=O)N[C@@H](CCN)C(=O)NCCOCCOCC(=O)NCCCCCCCCCCC(=O)O)NC(=O)[C@H](CN)NC(=O)[C@H](C(C)C)NC(=O)[C@H](CC3CCCCC3)NC(=O)[C@H](CCN)NC(=O)[C@@H](CC(C)C)NC(=O)[C@H](CCCN)NC(=O)[C@H](CCCNC(N)=O)NC(=O)[C@H](Cc3ccc(-c4ccccc4)cc3)NC(=O)[C@H](C(C)C)NC2=O)c1 [Compound 2633] ({CH2CO}-[Dap]Y(Carboxymethyl)D[Phe(3-Me)]V[Bip][Cit][Orn][dL][Dab][Cha]V[Dap]C[Dab][AEEA][Aun]-OH; thioether N-14)	7.79
CC[C@H](C)[C@@H]1NC(=O)[C@H](Cc2ccc(-c3ccccc3)cc2)NC(=O)[C@H](C(C)C)NC(=O)[C@H](Cc2cccc(C)c2)NC(=O)[C@H](CC(=O)O)NC(=O)[C@H](Cc2ccc(OCC(=O)O)cc2)NC(=O)[C@H](CN)NC(=O)CSC[C@@H](C(=O)N[C@@H](CCN)C(=O)NCCOCCOCC(=O)NCCCCCCCCCCC(=O)O)NC(=O)[C@H](CN)NC(=O)[C@H](C(C)C)NC(=O)[C@H](CC2CCCCC2)NC(=O)[C@H](CCN)NC(=O)[C@@H](CC(C)C)NC(=O)[C@H](CCCN)NC1=O [Compound 2634] ({CH2CO}-[Dap]Y(Carboxymethyl)D[Phe(3-Me)]V[Bip]I[Orn][dL][Dab][Cha]V[Dap]C[Dab][AEEA][Aun]-OH; thioether N-14)	7.85
Cc1cccc(C[C@@H]2NC(=O)[C@H](CC(=O)O)NC(=O)[C@H](Cc3ccc(OCC(=O)O)cc3)NC(=O)[C@H](CN)NC(=O)CSC[C@@H](C(=O)N[C@@H](CCN)C(=O)NCCOCCOCC(=O)NCCCCCCCCCCC(=O)O)NC(=O)[C@H](CCCNC(=N)N)NC(=O)[C@H](C(C)C)NC(=O)[C@H](CC3CCCCC3)NC(=O)[C@H](CCN)NC(=O)[C@@H](CC(C)C)NC(=O)[C@H](CCCN)NC(=O)[C@H](CCCNC(N)=O)NC(=O)[C@H](Cc3ccc(-c4ccccc4)cc3)NC(=O)[C@H](C(C)C)NC2=O)c1 [Compound 2635] ({CH2CO}-[Dap]Y(Carboxymethyl)D[Phe(3-Me)]V[Bip][Cit][Orn][dL][Dab][Cha]VRC[Dab][AEEA][Aun]-OH; thioether N-14)	7.99
CC[C@H](C)[C@@H]1NC(=O)[C@H](Cc2ccc(-c3ccccc3)cc2)NC(=O)[C@H](C(C)C)NC(=O)[C@H](Cc2cccc(C)c2)NC(=O)[C@H](CC(=O)O)NC(=O)[C@H](Cc2ccc(OCC(=O)O)cc2)NC(=O)[C@H](CN)NC(=O)CSC[C@@H](C(=O)N[C@@H](CCN)C(=O)NCCOCCOCC(=O)NCCCCCCCCCCC(=O)O)NC(=O)[C@H](CCCNC(=N)N)NC(=O)[C@H](C(C)C)NC(=O)[C@H](CC2CCCCC2)NC(=O)[C@H](CCN)NC(=O)[C@@H](CC(C)C)NC(=O)[C@H](CCCN)NC1=O [Compound 2636] ({CH2CO}-[Dap]Y(Carboxymethyl)D[Phe(3-Me)]V[Bip]I[Orn][dL][Dab][Cha]VRC[Dab][AEEA][Aun]-OH; thioether N-14)	7.65
Cc1cccc(C[C@@H]2NC(=O)[C@H](CC(=O)O)NC(=O)[C@H](Cc3ccc(OCC(=O)O)cc3)NC(=O)[C@H](CN)NC(=O)CSC[C@@H](C(=O)N[C@@H](CCCCN)C(=O)NCCCCCCCCCCC(=O)O)NC(=O)[C@H](CN)NC(=O)[C@H](C(C)C)NC(=O)[C@H](CC3CCCCC3)NC(=O)[C@H](CCN)NC(=O)[C@@H](CC(C)C)NC(=O)[C@H](CCCN)NC(=O)[C@H](CCCNC(N)=O)NC(=O)[C@H](Cc3ccc(-c4ccccc4)cc3)NC(=O)[C@H](C(C)C)NC2=O)c1 [Compound 2637] ({CH2CO}-[Dap]Y(Carboxymethyl)D[Phe(3-Me)]V[Bip][Cit][Orn][dL][Dab][Cha]V[Dap]CK[Aun]-OH; thioether N-14)	7.81
